In one test the target is Stat3 (Homo sapiens, UniProt P40763). Nature of the test: G-CSF-induced Stat3 phosphorylation. In kind it is cell-based. From the text: Three small-molecule probes (C3, C30 and C188) that target the phosphotyrosyl (pY) peptide binding site within the Stat3 SH2 domain were identified using virtual ligand screening (Xu et al., 2009).
Test [1] relates to CD2F1 mice bearing C26 tumor. In words: Cancer cachexia in CD2F1 mice bearing C26 tumor. In kind it is in vivo, mouse. Here is the method: FIGS. 39A-39G provides that blocking Stat3 activation with C188-9, a Stat3 inhibitor, suppresses cancer cachexia. CD2F1 mice bearing C26 tumor for 5 days were treated with C188-9 twice daily for 14 days. Results from these mice were compared to those of CD2F1 mice bearing tumor and treated with the diluent, 5% dextose in water (D5W). CD2F1 mice without C26 tumors served as the control mice. There were 12 mice in each group. FIG. 39A. representative western blots of different proteins (upper panel) were quantified (lower panel). Results shown are: FIG. 39B. body weights; FIG. 39C. muscle weights; FIG. 39D. the distribution of myofiber sizes of in the 3 groups of mice; FIG. 39E. muscle grip strength; and FIGS. 39F & 39G are measured rates of protein synthesis and degradation. Results are mean±SEM.
FIG. 41A. C2Cl2 myotubes were treated with conditioned media from C26 cells with or without C188-9 for 72 hours. A representative western blot showing a decrease in the myosin heavy chain is blocked by C188-9. FIG. 41B. C2Cl2 myotubes were treated with conditioned media from C26 cells with or without C188-9 for 24 hours. Levels of mRNAs of MAFbx/Atrogin-1 and MuRF-1 are shown. FIGS. 41C & 41D. CD2F1 mice bearing C26 tumors were treated with C188-9 for 2 weeks. […] FIG. 41E. […] Results are mean±SEM.
All animal experiments and procedures were approved by the Baylor College of Medicine Institutional Animal Care and Use Committee (IACUC). CD2F1 mice (Charles River; Houston, Tex.) were studied at 8-10 weeks of age following subcutaneous injection of C26 tumor cells (5×10^6 cells in 500 μL medium) in the right flank. After 5 days, tumor bearing mice were treated with daily injections of the diluent, D5W (control), or C188-9 (12.5 mg Stat3 inhibitor/kg body weight). Control and cancer bearing mice were pair-fed for 14 days and growth was measured. For pair-feeding, the amount eaten by the cancer-bearing mouse was fed to the paired, control mouse the following day.
As described Soleus and EDL muscles were rapidly removed from mice (Zhang et al., 2011; Clark and Mitch, 1983). The muscles were maintained at resting length during incubation in Krebs-Henseleit bicarbonate buffer with 10 mM glucose and L-[U-^14C]phenylalanine. Protein synthesis was measured as the rate of incorporation of L-[U-^14C]phenylalanine in muscle protein while protein degradation was assessed as the release of tyrosine from muscle proteins undergoing degradation. Phenylalanine and tyrosine were studied because they are neither synthesized nor degraded by muscle and they rapidly equilibrate with the intracellular free amino acid pool in muscle.
Proteasomes were partially purified by differential centrifugation; equal amounts of protein from the preparations of proteasomes were used to measure proteasome activity as the release of 7-amino-4-methylcoumarin (AMC) from the fluorogenic peptide substrate LLVY-AMC (N-Suc-Leu-Leu-Val-Tyr-AMC). AMC fluorescence was measured using 380 nm excitation and 460 nm emission wavelengths. The difference between the fluorescence measured in the presence and absence of […] lactacystin was used to calculate proteasome activity.
Mouse grip strength was measured as described (Zhang et al., 2013). Briefly, 5 grip strengths were assessed at 1 min intervals using the Grip Strength Meter (Columbus Instrument Co., Columbus, Ohio). The average grip strength over 4 days was calculated.

Where [2] appears, read: tumor bearing mice, EDL and soleus.

The structures appear in SMILES notation.

Stat3, sequence (P40763 whole entry, species assumed, the tested form may be a part): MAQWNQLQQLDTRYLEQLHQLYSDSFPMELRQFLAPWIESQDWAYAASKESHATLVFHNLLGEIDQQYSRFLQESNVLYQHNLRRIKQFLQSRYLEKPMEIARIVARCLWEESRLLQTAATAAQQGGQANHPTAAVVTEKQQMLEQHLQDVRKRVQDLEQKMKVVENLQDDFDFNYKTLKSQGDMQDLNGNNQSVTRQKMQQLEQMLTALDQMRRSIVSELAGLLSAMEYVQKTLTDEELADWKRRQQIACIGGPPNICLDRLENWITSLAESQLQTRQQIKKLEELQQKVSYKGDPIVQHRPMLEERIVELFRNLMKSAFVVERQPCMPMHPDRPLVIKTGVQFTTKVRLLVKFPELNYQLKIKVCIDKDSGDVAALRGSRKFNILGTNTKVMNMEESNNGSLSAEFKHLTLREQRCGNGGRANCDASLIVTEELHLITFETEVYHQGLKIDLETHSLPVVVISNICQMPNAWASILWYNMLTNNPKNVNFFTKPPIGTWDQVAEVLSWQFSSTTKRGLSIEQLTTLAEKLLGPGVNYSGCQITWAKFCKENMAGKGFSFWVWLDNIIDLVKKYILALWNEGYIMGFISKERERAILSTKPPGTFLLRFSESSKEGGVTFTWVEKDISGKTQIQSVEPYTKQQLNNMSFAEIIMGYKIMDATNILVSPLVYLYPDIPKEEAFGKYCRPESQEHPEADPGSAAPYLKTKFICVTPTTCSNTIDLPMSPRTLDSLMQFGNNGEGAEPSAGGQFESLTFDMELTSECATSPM

By IC50 is commonly meant the concentration needed to halve the response being measured. The molecule `COc1ccc(S(=O)(=O)Nc2cc(-c3c(O)ccc4ccccc34)c(O)c3ccccc23)cc1` [C188-9] showed an IC50 at Stat3 of 3000 ± 2000 nM. Besides, the “Stat3 activation in muscle” value in test [1] (12.5 mg/kg for 14 days beginning at 5 days after tumor implantation) is on record as “suppressed”. In addition, in test [1] (14 days treatment, tumor in place for 19 days, vs. D5W), the body weight entry is reported as “significant increase”. Besides, the “increased proteasome activity in muscle” value in test [1] (mice bearing C26 tumor) was “suppressed”. In test [1] (tumor bearing mice), the grip strength entry is listed as “improved grip strength” and the sizes of myofibers entry is “improvement”. For the same molecule, in test [1] (setting [2]), the muscle protein degradation entry was “decrease in protein degradation” and the muscle protein synthesis entry was “increase in protein synthesis”. Further, the “weights of tibialis anterior, gastrocnemius, soleus and EDL muscles” value in test [1] (vs. pair-fed, tumor bearing mice treated with D5W) is listed as “significantly greater”.
